Reference: PubChem BioAssay AID248 (DTP/NCI, 2004)
“And” between values parts separate entries of the source, which are not always exact repeats. Identical values can stand only once. Toxic doses and inconclusive results are not listed.

System: L1210 leukemia ip in BDF1 mice, survival T/C
Assay: NCI In Vivo Anticancer Drug Screen. Data for tumor model L1210 Leukemia (intraperitoneal) in B6D2F1 (BDF1) mice
Settings: endpoint: mean survival time, higher = longer survival
In short: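 Each compound was tested against a transplantable tumor grown in mice. The endpoint was survival, with treated animals benchmarked against vehicle controls as a simple ratio.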

[1] = dose: 50.0 mg/kg/injection, schedule: Q01DX001 (ip), vehicle: saline
[2] = dose: 100.0 mg/kg/injection, schedule: Q01DX001 (ip), vehicle: saline
[3] = dose: 200.0 mg/kg/injection, schedule: Q01DX001 (ip), vehicle: saline
[4] = dose: 100.0 mg/kg/injection, schedule: Q04DX003 (ip), vehicle: carboxymethylcellulose (CMC)
[5] = dose: 200.0 mg/kg/injection, schedule: Q04DX003 (ip), vehicle: carboxymethylcellulose (CMC)

With Cc1ccc(NCCN(C)C)c2c(=O)c3ccccc3sc12 the T/C (dose: 9.3 mg/kg/injection, schedule: Q01DX Z (ip), vehicle: saline) was 104 % of control, the T/C (dose: 14.0 mg/kg/injection, schedule: Q01DX Z (ip), vehicle: saline) was 108 % of control and the T/C (dose: 21.0 mg/kg/injection, schedule: Q01DX Z (ip), vehicle: saline) was 118 % of control. The T/C (dose: 28.0 mg/kg/injection, schedule: Q01DX Z (ip), vehicle: saline) was 117 % of control, the T/C (dose: 42.0 mg/kg/injection, schedule: Q01DX Z (ip), vehicle: saline) was 163 % of control and the T/C [1] was 101 % of control. For the same compound, the T/C (dose: 84.0 mg/kg/injection, schedule: Q01DX Z (ip), vehicle: saline) was 115 % of control, the T/C (dose: 89.0 mg/kg/injection, schedule: Q01DX001 (ip), vehicle: saline) was 100 % of control and the T/C (dose: 93.0 mg/kg/injection, schedule: Q01DX Z (ip), vehicle: saline) was 101 % of control. The T/C [2] was 109 % of control, the T/C (dose: 100.0 mg/kg/injection, schedule: Q01DX Z (ip), vehicle: saline) was 107 % of control and the T/C (dose: 125.0 mg/kg/injection, schedule: Q01DX Z (ip), vehicle: carboxymethylcellulose (CMC)) was 151 % of control. The T/C (dose: 133.0 mg/kg/injection, schedule: Q01DX001 (ip), vehicle: saline) was 117 % of control and the T/C [3] was 155 % of control and 212 % of control.
With Nc1nnc2c(n1)[nH]c1ccccc12 the T/C [1] was 96 % of control, the T/C [2] was 100 % of control and the T/C [3] was 93 % of control.
In the case of CNc1ccc(N=Nc2ccncc2C)cc1C, the T/C (dose: 100.0 mg/kg/injection, schedule: Q04DX003 (ip), vehicle: saline with Tween-80) is reported as 102 % of control, the T/C (dose: 200.0 mg/kg/injection, schedule: Q04DX003 (ip), vehicle: saline with Tween-80) is reported as 96 % of control and the T/C (dose: 400.0 mg/kg/injection, schedule: Q04DX003 (ip), vehicle: saline with Tween-80) is reported as 96 % of control.
In the case of CN(C)c1ccc(C=O)c([N+](=O)[O-])c1, the T/C (dose: 100.0 mg/kg/injection, schedule: Q01DX009 (ip), vehicle: Klucel (hydroxypropylcellulose) (HPC)) is reported as 97 % of control, the T/C (dose: 200.0 mg/kg/injection, schedule: Q01DX009 (ip), vehicle: Klucel (hydroxypropylcellulose) (HPC)) is reported as 101 % of control and the T/C (dose: 400.0 mg/kg/injection, schedule: Q01DX009 (ip), vehicle: Klucel (hydroxypropylcellulose) (HPC)) is reported as 105 % of control.
With NC(=O)CCSCCC(N)=O the T/C (dose: 100.0 mg/kg/injection, schedule: Q01DX009 (ip), vehicle: saline) was 114 % of control, the T/C (dose: 200.0 mg/kg/injection, schedule: Q01DX009 (ip), vehicle: saline) was 118 % of control and the T/C (dose: 400.0 mg/kg/injection, schedule: Q01DX009 (ip), vehicle: saline) was 111 % of control.
In the case of C=C(C)C(=O)Oc1ccccc1-c1ccccc1, the T/C (dose: 100.0 mg/kg/injection, schedule: Q04DX002 (ip), vehicle: Klucel (hydroxypropylcellulose) (HPC)) is reported as 100 % of control, the T/C (dose: 200.0 mg/kg/injection, schedule: Q04DX002 (ip), vehicle: Klucel (hydroxypropylcellulose) (HPC)) is reported as 96 % of control and the T/C (dose: 400.0 mg/kg/injection, schedule: Q04DX002 (ip), vehicle: Klucel (hydroxypropylcellulose) (HPC)) is reported as 92 % of control.
With NC(=O)N(CCO)CCO the T/C (dose: 100.0 mg/kg/injection, schedule: Q04DX003 (ip), vehicle: saline) was 110 % of control, the T/C (dose: 200.0 mg/kg/injection, schedule: Q04DX003 (ip), vehicle: saline) was 96 % of control and the T/C (dose: 400.0 mg/kg/injection, schedule: Q04DX003 (ip), vehicle: saline) was 104 % of control.
CS(=O)(=O)Nc1nc2ccccc2s1 was tested, and the T/C [4] was 98 % of control, the T/C [5] was 98 % of control and the T/C (dose: 400.0 mg/kg/injection, schedule: Q04DX003 (ip), vehicle: carboxymethylcellulose (CMC)) was 97 % of control.
For c1ccc2c(c1)Oc1ccccc1[Te]2, the T/C (dose: 100.0 mg/kg/injection, schedule: Q04DX002 (ip), vehicle: saline with Tween-80) was 100 % of control, the T/C (dose: 200.0 mg/kg/injection, schedule: Q04DX002 (ip), vehicle: saline with Tween-80) was 103 % of control and the T/C (dose: 400.0 mg/kg/injection, schedule: Q04DX002 (ip), vehicle: saline with Tween-80) was 88 % of control.
With Cc1c2c(cc3c4ccccc4n(CC4CO4)c13)C(c1ccc(Cl)cc1)=NCC2 (centres undefined) the T/C (dose: 37.5 mg/kg/injection, schedule: Q04DX003 (ip), vehicle: water) was 104 % of control, the T/C (dose: 75.0 mg/kg/injection, schedule: Q04DX003 (ip), vehicle: water) was 100 % of control and the T/C (dose: 150.0 mg/kg/injection, schedule: Q04DX003 (ip), vehicle: water) was 92 % of control. The T/C (dose: 300.0 mg/kg/injection, schedule: Q04DX003 (ip), vehicle: water) was 96 % of control.
With O=C(Nc1ccc(C(=O)O)c(O)c1)Nc1ccccc1C(F)(F)F the T/C (dose: 50.0 mg/kg/injection, schedule: Q01DX001 (ip), vehicle: carboxymethylcellulose (CMC)) was 92 % of control, the T/C (dose: 50.0 mg/kg/injection, schedule: Q01DX009 (ip), vehicle: carboxymethylcellulose (CMC)) was 100 % of control and 106 % of control and the T/C (dose: 50.0 mg/kg/injection, schedule: Q04DX003 (ip), vehicle: carboxymethylcellulose (CMC)) was 93 % of control. For the same compound, the T/C (dose: 100.0 mg/kg/injection, schedule: Q01DX001 (ip), vehicle: carboxymethylcellulose (CMC)) was 101 % of control, the T/C (dose: 100.0 mg/kg/injection, schedule: Q01DX009 (ip), vehicle: carboxymethylcellulose (CMC)) was 105 % of control and 92 % of control and the T/C (dose: 100.0 mg/kg/injection, schedule: Q04DX002 (ip), vehicle: carboxymethylcellulose (CMC)) was 94 % of control and 97 % of control. For the same compound, the T/C [4] was 88 % of control, the T/C (dose: 200.0 mg/kg/injection, schedule: Q01DX001 (ip), vehicle: carboxymethylcellulose (CMC)) was 97 % of control and the T/C (dose: 200.0 mg/kg/injection, schedule: Q01DX009 (ip), vehicle: carboxymethylcellulose (CMC)) was 91 % of control and 92 % of control. For the same compound, the T/C (dose: 200.0 mg/kg/injection, schedule: Q04DX002 (ip), vehicle: carboxymethylcellulose (CMC)) was 101 % of control and 108 % of control, the T/C [5] was 89 % of control and the T/C (dose: 400.0 mg/kg/injection, schedule: Q04DX002 (ip), vehicle: carboxymethylcellulose (CMC)) was 103 % of control.
